Source: patent publication US4444771A, “Azeto triazolo pyrazine β-lactam antibacterial agents” (Beecham Group Limited, priority 1980, dated 1984)
Structures can show the parent of a compound that is named as a salt. One block for each compound: values may come before it.

How the values were obtained:
Format in all cases: cell-based
S. pyogenes = experiment: Antibacterial activity, minimum inhibitory concentration, S. pyogenes; conditions: Streptococcus pyogenes, serial dilution, DST agar + 10% horse blood, 10^-2 dilution inoculum, 37°, 18 h
Description: (§1) Minimum Inhibitory Concentration μg/ml^a
(§2) ^a Determined by serial dilution on DST agar containing 10% horse
(§3) blood using an inoculum of 0.001 ml of a 10^-2 dilution for
(§4) Grampositive bacteria or a 10^-4 dilution for Gramnegative organisms.
(§5) MIC values were read after incubation at 37° for eighteen hours.

B. subtilis = experiment: Antibacterial activity, minimum inhibitory concentration, B. subtilis; conditions: Bacillus subtilis, serial dilution, DST agar + 10% horse blood, 10^-2 dilution inoculum, 37°, 18 h
Description: as §1, §2, §3, §4, §5

E. coli = experiment: Antibacterial activity, minimum inhibitory concentration, E. coli; conditions: Escherichia coli, serial dilution, DST agar + 10% horse blood, 10^-4 dilution inoculum, 37°, 18 h
Description: as §1, §2, §3, §4, §5

S. pneumoniae = experiment: Antibacterial activity, minimum inhibitory concentration, S. pneumoniae; conditions: Streptococcus pneumoniae, serial dilution, DST agar + 10% horse blood, 10^-2 dilution inoculum, 37°, 18 h
Description: as §1, §2, §3, §4, §5

S. aureus Oxford = experiment: Antibacterial activity, minimum inhibitory concentration, S. aureus Oxford; conditions: Staphylococcus aureus, serial dilution, DST agar + 10% horse blood, 10^-2 dilution inoculum, 37°, 18 h
Description: as §1, §2, §3, §4, §5

K. aerogenes = experiment: Antibacterial activity, minimum inhibitory concentration, K. aerogenes; conditions: Klebsiella aerogenes, serial dilution, DST agar + 10% horse blood, 10^-4 dilution inoculum, 37°, 18 h
Description: as §1, §2, §3, §4, §5

P. mirabilis = experiment: Antibacterial activity, minimum inhibitory concentration, P. mirabilis; conditions: Proteus mirabilis, serial dilution, DST agar + 10% horse blood, 10^-4 dilution inoculum, 37°, 18 h
Description: as §1, §2, §3, §4, §5

S. aureus Russell = experiment: Antibacterial activity, minimum inhibitory concentration, S. aureus Russell; conditions: Staphylococcus aureus; S. aureus Russell (lactamase-producing benzylpenicillin-resistant strain); serial dilution, DST agar + 10% horse blood, 10^-2 dilution inoculum, 37°, 18 h
Description: as §1, §2, §3, §4, §5
^b lactamase-producing benzylpenicillinresistant strain.

S. typhimurium = experiment: Antibacterial activity, minimum inhibitory concentration, S. typhimurium; conditions: Salmonella enterica, serial dilution, DST agar + 10% horse blood, 10^-4 dilution inoculum, 37°, 18 h
Description: as §1, §2, §3, §4, §5

S. faecalis = experiment: Antibacterial activity, minimum inhibitory concentration, S. faecalis; conditions: Enterococcus faecalis, serial dilution, DST agar + 10% horse blood, 10^-2 dilution inoculum, 37°, 18 h
Description: as §1, §2, §3, §4, §5

Structure (SMILES): CC1=C(C(=O)O)N2C(=O)[C@H](NC(=O)COc3ccccc3)[C@@H]2c2cnnn21 (relative stereo) [Compound 15, (4bRS,5RS) 5,6-Dihydro-9-methyl-6-oxo-5-phenoxyacetamido-4bH-azeto-[2,1-c]v-triazolo-[1,5-a]-pyrazine-8-carboxylic acid]
MIC (S. pyogenes): 5 µg/mL
MIC (B. subtilis): 5 µg/mL
MIC (E. coli): > 100 µg/mL
MIC (S. pneumoniae): 2.5 µg/mL
MIC (S. aureus Oxford): 25 µg/mL
MIC (K. aerogenes): > 100 µg/mL
MIC (P. mirabilis): > 100 µg/mL
MIC (S. aureus Russell): 100 µg/mL
MIC (S. typhimurium): > 100 µg/mL
MIC (S. faecalis): > 100 µg/mL

Structure (SMILES): CC1=C(C(=O)O)N2C(=O)[C@H](NC(=O)C(C(=O)Oc3ccccc3)c3ccccc3)[C@@H]2c2cnnn21 (relative stereo) [Compound 22, (4bRS,5RS) 5,6-Dihydro-9-methyl-6-oxo-5-[DL-α-phenoxycarbonylphenylacetamido]-4bH-azeto[2.1-c]-v-triazolo[1.5-a]-pyrazine-8-carboxylic acid]
MIC (B. subtilis): 100 µg/mL
MIC (E. coli): 100 µg/mL
MIC (S. aureus Oxford): > 100 µg/mL
MIC (K. aerogenes): > 100 µg/mL
MIC (P. mirabilis): 100 µg/mL
MIC (S. aureus Russell): > 100 µg/mL
MIC (S. typhimurium): 50 µg/mL
MIC (S. faecalis): > 100 µg/mL

Structure (SMILES): CC(=O)N[C@H]1C(=O)N2C(C(=O)O)=C(C)n3nncc3[C@@H]12 (relative stereo) [Compound 35, (4bRS,5RS) 5-Acetamido-5,6-dihydro-9-methyl-6-oxo-4bH-azeto-[2,1-c]-v-triazolo-pyrazine-8-carboxylic acid]
MIC (S. pyogenes): 2.5 µg/mL
MIC (B. subtilis): 5 µg/mL
MIC (E. coli): > 100 µg/mL
MIC (S. pneumoniae): 5 µg/mL
MIC (S. aureus Oxford): 100 µg/mL
MIC (K. aerogenes): > 100 µg/mL
MIC (P. mirabilis): > 100 µg/mL
MIC (S. aureus Russell): > 100 µg/mL
MIC (S. typhimurium): 100 µg/mL
MIC (S. faecalis): > 100 µg/mL

MIC (S. pyogenes): 0.2 µg/mL
MIC (B. subtilis): 0.5 µg/mL
MIC (S. pneumoniae): 2.5 µg/mL
MIC (S. aureus Oxford): 10 µg/mL
MIC (K. aerogenes): 100 µg/mL
MIC (P. mirabilis): 10 µg/mL
MIC (S. aureus Russell): 100 µg/mL
MIC (S. faecalis): 25 µg/mL
Structure (SMILES): CC1=C(C(=O)O)N2C(=O)[C@H](NC(=O)Cc3cccs3)[C@@H]2c2cnnn21 (relative stereo) [Compound 55, (4bRS,5RS) 5,6-Dihydro-9-methyl-6-oxo-5-(2-thienylacetamido)-4bH-azeto-[2,1-c]-v-triazolo-[1,5-a]-pyrazine-8-carboxylic acid, p-toluidine salt)]

Structure (SMILES): CC1=C(C(=O)O)N2C(=O)C(NC(=O)[C@H](N)c3ccccc3)C2c2cnnn21 (stereo partly drawn) [Compound 28, (4bRS,5RS)-5,6-Dihydro-9-methyl-6-oxo-5-D-α-phenylglycylamino-4bH-azeto-[2,1-c]-v-triazolo[1,5-a]pyrazine-8-carboxylic acid, p-toluidine salt]
MIC (S. pyogenes): 2.5 µg/mL
MIC (B. subtilis): 10 µg/mL
MIC (E. coli): > 100 µg/mL
MIC (S. pneumoniae): 10 µg/mL
MIC (S. aureus Oxford): 100 µg/mL
MIC (K. aerogenes): > 100 µg/mL
MIC (P. mirabilis): > 100 µg/mL
MIC (S. aureus Russell): > 100 µg/mL
MIC (S. typhimurium): > 100 µg/mL
MIC (S. faecalis): > 100 µg/mL

Structure (SMILES): CC1=C(C(=O)O)N2C(=O)[C@H](NC(=O)[C@H](O)c3ccccc3)[C@@H]2c2cnnn21 [Compound 39, (4bR,5R) 5,6-Dihydro-5-D-α-hydroxyphenylacetamido-9-methyl-6-oxo-4bH-azeto-[2,1-c]-v-triazolo-[1,5-a]-pyrazine-8-carboxylic acid]
MIC (S. pyogenes): > 100 µg/mL
MIC (B. subtilis): 100 µg/mL
MIC (E. coli): > 100 µg/mL
MIC (S. pneumoniae): > 100 µg/mL
MIC (S. aureus Oxford): > 100 µg/mL
MIC (K. aerogenes): > 100 µg/mL
MIC (P. mirabilis): > 100 µg/mL
MIC (S. aureus Russell): > 100 µg/mL
MIC (S. typhimurium): > 100 µg/mL
MIC (S. faecalis): > 100 µg/mL

Structure (SMILES): CC1=C(C(=O)O)N2C(=O)[C@@H](NC(=O)[C@H](O)c3ccccc3)[C@H]2c2cnnn21 [Compound 40, (4bS,5S)-5,6-Dihydro-5-D-α-hydroxyphenylacetamido-9-methyl-6-oxo-4bH-azeto-[2,1-c]-v-triazolo-[1,5-a]-pyrazine-8-carboxylic acid]
MIC (S. pyogenes): 50 µg/mL
MIC (B. subtilis): 0.5 µg/mL
MIC (E. coli): > 100 µg/mL
MIC (S. pneumoniae): ≤ 0.2 µg/mL
MIC (S. aureus Oxford): 25 µg/mL
MIC (K. aerogenes): 100 µg/mL
MIC (P. mirabilis): 10 µg/mL
MIC (S. aureus Russell): 100 µg/mL
MIC (S. typhimurium): 25 µg/mL
MIC (S. faecalis): 100 µg/mL

Structure (SMILES): CC1=C(C(=O)O)N2C(=O)[C@@H](NC(=O)COc3ccccc3)[C@H]2c2cnnn21 [Compound 42, (4bS,5S)-5,6-Dihydro-9-methyl-6-oxo-5-phenoxyacetamido-4bH-azeto-[2,1-c]-v-triazolo-[1,5-a]-pyrazine-8-carboxylic acid]
MIC (S. pyogenes): 2.5 µg/mL
MIC (B. subtilis): 0.5 µg/mL
MIC (E. coli): > 50 µg/mL
MIC (S. pneumoniae): 5 µg/mL
MIC (K. aerogenes): > 50 µg/mL
MIC (P. mirabilis): > 50 µg/mL
MIC (S. aureus Russell): > 50 µg/mL
MIC (S. typhimurium): > 50 µg/mL
MIC (S. faecalis): 50 µg/mL
